Results: patent US20060025458A1, “Alkylammonium compounds as antifungal and antitrypanosomal agents” (University of Connecticut, priority 2004, published 2006)
Like-named read-outs stand apart in the source and are kept apart here. Blank lines part the entries; values can stand above or below the compound they belong to.

Tests used:
P. falciparum [1] = details: Ancelin and Vial, 1986; read-out: IC50, lethal to P. falciparum in vitro; cited from earlier work
[2] = test system: promastigote form of L. major; experiment: Growth inhibition of Leishmania major promastigotes; format: cell-based; details: read-out: IC50 of choline analogs in Leishmania major, WT
Procedure: For those drugs, IC50 values were determined.

S. cerevisiae = experiment: Liquid growth inhibition assay of S. cerevisiae (OD600); format: cell-based, Saccharomyces cerevisiae; details: for Inhibition of S. cerevisiae growth (in words): structure-activity comparison, Examples 2-4
Procedure: Strains and Growth Conditions: Wild-type (BY4741: Mata his3Δ1 leu2Δ0 met15Δ0 ura3Δ0) and mutant (hnm1Δ, psd1Δ, cki1Δ, pem1Δ, ept1Δ, cpt1Δ, eki1Δ, psd2Δ, pct1Δ, ect1Δ, pem2Δ) S. cerevisiae strains used in this study were purchased from Research Genetics (Invitrogen, USA). These strains were grown on YPD (1% yeast extract, 2% dextrose and 2% peptone) or synthetic complete medium (SD, 1.7% yeast nitrogen base, 5% ammonium sulfate and 2% dextrose). The Nigerian strain of P. falciparum was propagated in human red blood cells at 4% hematocrit by the method of Trager and Jensen (1976). Plate growth assays were performed by growing wild-type and mutant yeast strains in YPD to mid-log phase. Cultures were serially diluted 1:10 starting with a density of 3×10^7 cells/ml. The growth of cells was monitored by spotting 3 μl of each dilution onto solid medium in the absence or presence of 5 μM of G25.
Twenty-one analogs including first, second and third generation (E2a, E6, E9, E13, E24, F4, G2, G4, G5, G14, GI5, G25, H5, L1, L4, M34, M53, MS1, T3 and T4) compounds (provided by Dr. Henri Vial, City, Country) were tested (FIG. 4). The choice of the compounds was such that they represent all possible structural features introduced during the optimization process for enhancing antimalarial activity as determined using the combinatorial chemistry techniques.
The antimalarial drug G25 inhibits the growth of Saccharomyces cerevisiae. […] Growth inhibition was assessed by measuring the OD600 and comparing it to that of the wild-type strain grown under the same conditions in the absence of the compound. […] This IC50 value is in the range of the predicted intracellular concentration of G25 in P. falciparum due to the accumulative properties inside the infected erythrocytes.

C. albicans strain BWP17 = experiment: Growth inhibition of C. albicans in vitro; format: cell-based, Candida albicans; details: read-out: IC50, C. albicans proliferation
Procedure: G15, E24 and C35 inhibited at higher concentrations (>10 μM).

[3] = test system: P. falciparum-infected erythrocytes; details: after 3 h incubation; cited from earlier work
P. falciparum [4] = experiment: P. falciparum growth in vitro (antimalarial activity); format: cell-based, Plasmodium falciparum; details: predicted by QSAR and confirmed experimentally; read-out: IC50, in vitro anti-malarial activity
wild-type S. cerevisiae = test system: wild-type S. cerevisiae
Procedure: (§1) Uptake Assays: Yeast strains were grown in synthetic complete medium supplemented as required to maintain cell growth to an optical density of 0.55-0.65 at 600 nm. Cells were harvested by centrifugation at 3,200×g for 10 min at 4° C., washed twice in cold PBS and resuspended in nitrogen-free medium (SD without ammonium sulfate). […] After 3 min incubation at 30° C. with shaking, transport was immediately stopped by filtration through Whatman GF/C glass microfiber paper. The filters were washed three times with 5 ml ice-cold PBS, air dried, and analyzed in a scintillation counter. For time course uptake, 3-4×10^7 cells were incubated at 30° C. in 1 ml of nitrogen-free medium in the presence of 25 nM [^3H]-T16 (69 Ci/mmol) for different time periods (1, 2, 3, 4, 5, 7, 10 and 15 min) after which 5 ml of cold PBS was added to stop the reaction. Kinetic parameters were determined after 4 min of incubation at 30° C. in the presence of [^3H]-T16 at concentrations ranging from 25 nM to 75 μM (69 Ci - 23 mCi/mol). The samples were centrifuged at 4° C. for 10 min at 1,200×g, the supernatants were discarded and the cells were then resuspended in 5 ml of cold PBS. The reaction was terminated by filtering the cell suspension through GF/C membranes that were pretreated with 15 ml of 0.05% polyethyleneimine (PEI). The filters were washed twice with 5 ml of cold PBS, air dried, and analyzed in a scintillation counter. The cellular accumulation ratio (CAR) was calculated as previously described for T16 and G25 (Biagini, et al., 2003; Wengelnik, et al., 2002).

[5] = test system: hnm1Δ S. cerevisiae strain lacking the choline transporter gene HNM1; experiment: [3H]-T16 transport in hnm1 deletion strain; format: cell-based, Saccharomyces cerevisiae; details: 4 min, 30° C.
Procedure: as §1, with “The samples were centrifuged at 4° C. for 10 min at 1,200×g, the supernatants were discarded and the cells were then resuspended in 5 ml of cold PBS. The reaction was terminated by filtering the cell suspension through GF/C membranes that were pretreated with 15 ml of 0.05% polyethyleneimine (PEI).” left out

[6] = test system: choline transport in the wild-type strain of S. cerevisiae; experiment: [methyl-3H]-choline uptake in wild-type S. cerevisiae; format: cell-based, Saccharomyces cerevisiae; details: 20-fold excess over [methyl-3H]-choline
Procedure: as §1

[7] = cited from earlier work

Compound: C[N+](C)(C)CCCCCCCCCC[N+](C)(C)C [DMA, decamethonium]
IC50 (P. falciparum [1]): 1 µM

Compound: CCCCCCCCCC[N+](C)(C)C [DTMA, decyltrimethylammonium]
IC50 (P. falciparum [1]): 0.7 µM

IC50, growth of S. cerevisiae (S. cerevisiae; wild-type W303 and BY4741, 10^5 cells/ml, YPD, 30° C., 24 h): high μM range
Compound: CCCCCCCCCCCC[N+](C)(C)C.[Br-] [E6]
IC50 [2]: 2.15 µM
Inhibition of S. cerevisiae growth (in words) (S. cerevisiae): not an effective drug

Compound: CCCCCCCCCCCCCCCCCC[N+](C)(C)C.[Cl-] [E9]
IC50 (C. albicans strain BWP17): ~1 µM
IC50 [2]: 0.11 µM
Inhibition of S. cerevisiae growth (in words) (S. cerevisiae): inhibited
IC50 (S. cerevisiae; wild-type W303 and BY4741, 10^5 cells/ml, YPD, 30° C., 24 h, read-out: IC50, growth of S. cerevisiae): 0.25 to 0.5 µM

Compound: CCCCCCCCCCCC[N+](CCC)(CCC)CCC.[Br-] [E13]
IC50 [2]: 0.35 µM
Inhibition of S. cerevisiae growth (in words) (S. cerevisiae): no improvement

Compound: CCCCCCCCCCCC[N+]1(C)CCCC1.[Br-] [E24]
IC50 [2]: 0.7 µM

Compound: CCCCCCCCCCCC[N+](C)(C)CCO [F4]
IC50 [2]: 4.1 µM

Compound: C[N+](C)(CCO)CCCCCCCCCCCCCCCC[N+](C)(C)CCO.[Br-].[Br-] [H5]
IC50 (C. albicans strain BWP17): ~5 µM
Inhibition of S. cerevisiae growth (in words) (S. cerevisiae): better efficacy

Compound: C[N+]1(C)CCOC(O)(c2ccc(-c3ccc(C4(O)C[N+](C)(C)CCO4)cc3)cc2)C1 (centres unmarked) [HC3, hemicholinium 3]
IC50 (P. falciparum [1]): 4 µM

Compound: N=C(N)CCCCCCCCCCCCC(=N)N [M34]
IC50 [2]: 3.57 µM

Compound: CCc1sc[n+](CCCCCCCCCCCC[n+]2csc(CC)c2C)c1C.[I-].[I-] [T16, 1, 12-dodecanemethylene bis[4-methyl-5-ethylthiazolium]diiodide]
cellular accumulation ratio (CAR) [3]: ~500
IC50 (P. falciparum [4]): ~0.016 µM
IC50 (S. cerevisiae; wild-type strain BY4741, 1×10^4 cells/ml, liquid medium, 30° C., 16 h, read-out: IC50, inhibition of yeast growth): ~4 µM
cellular accumulation ratio (CAR) in yeast (wild-type S. cerevisiae): less than 7
Km (wild-type S. cerevisiae; read-out: apparent Km of transport, wild-type, 4 min, 30° C., Lineweaver-Burk): 5.05 ± 0.26 µM
time during which uptake was linear (wild-type S. cerevisiae; wild-type, 30° C., 25 nM): 12 min
maximum velocity Vmax of transport (wild-type S. cerevisiae; wild-type, 4 min, 30° C.): 0.98±0.48 pmol/min×10^7 cells
Km [5]: 7.45 ± 1.98 µM
Vmax of transport [5]: 0.76±0.21 pmol/min/10^7 cells
inhibition of choline transport [6]: 26%

Compound: Amphotericin B
half-life ([7]; IV infusion): about 2 weeks
renal impairment, share of patients ([7]; patients): 80%
